{"source": "patent US5310745A", "about": "“Antiviral compounds” (priority 1992, dated 1994)", "key": {"[1]": {"assay": "Pharmacokinetic and metabolism study, Rhesus monkey", "type": "in vivo", "procedure": "(§1) The parent tetrabutyrate compound consequently serves as an antivirally effective and useful pro-drug of the latter compound to which it is metabolized in the gut. […] The parent pro-drug was not detected. […] The oral bioactivity of the metabolite compound, measured as [^14 C]-metabolite compound, was determined to be between 28% and 50% in the Rhesus monkey, depending on the vehicle used (e.g., 0.5% methyl cellulose and 0.1% polysorbate in water). […] The blood levels of the metabolite compound, measured as part of a long term SIV infected monkey efficacy study, following oral dosing (high dose 750 mg/kg, low dose 250 mg/kg, administered every eight hours) with the pro-drug, yielded mean trough (cmin) plasma blood levels of the metabolite compound at eight hours post dosing of approximately 10 μg/mL and 6.8 μg/mL for the high and low doses, respectively."}, "[2]": {"test_system": "Sheep choroid plexus (SCP) cells", "assay": "Toxicity of compounds in control wells without virus, graded morphologically", "type": "cell-based", "parameters": "key: 0: no toxicity; 4: total cell lysates", "conditions": "0 to 4 scale, Table 1", "procedure": "Sheep choroid plexus (SCP) cells were obtained from American Type Culture Collection (ATCC) catalogue number CRL 1700 and were routinely passaged in vitro in Dulbecco's Modified Eagles (DME) medium supplemented with 20% fetal bovine serum (FBS). SCP cells were passaged once per week at a 1:2 or 1:3 split ratio. Visna was titrated by plaque assay in six-well plates. Virus pools were stored at -70° C.\nSCP cells were cultured in 6-well plates to confluence. Wells were washed two times with serum free Minimal Essential Medium (MEM) to remove FBS. 0.2 ml of virus was added per well in MEM supplemented with 4 mM glutamine and gentamycin. After 1 hour adsorption, the virus was aspirated from each well. The appropriate concentration of each compound in 5 ml of Medium 199 (M-199) supplemented With 2% lamb serum, 4 mM glutamine, 0.5% agarose and gentamycin was added to each well. Cultures were incubated at 37° C. in a humidified 5% CO2 incubator for 3-4 weeks. To terminate the test: cultures were fixed in 10% formalin, the agar removed, the monolayers stained with 1% crystal violet and plaques counted. Each compound concentration was run in triplicate. […] 0 is no toxicity observed while 4 is total lysing of the cell monolayer."}, "[3]": {"test_system": "Sheep choroid plexus (SCP) cells", "assay": "Toxicity of compounds in control wells without virus, graded morphologically", "type": "cell-based", "conditions": "0.1 mM; 0 to 4 scale; Table 1", "how_it_was_run": "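Compound alone, without virus, was held on confluent SCP monolayers under M-199 with 2% lamb serum and 0.5% agarose at 37° C for 3-4 weeks, in triplicate per concentration. Toxicity was graded morphologically from 0 (no toxicity observed) to 4 (total lysing of the cell monolayer).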"}, "[4]": {"assay": "Pharmacokinetic and metabolism study, rat", "type": "in vivo", "procedure": "as §1"}, "Diarrheagenic effect": {"assay": "Diarrheagenic effect", "type": "in vivo, monkey", "conditions": "normal, uninfected monkeys"}, "visna virus": {"test_system": "visna virus", "assay": "Plaque reduction assay, inhibition of visna virus in vitro", "type": "cell-based", "parameters": "key to Antiviral Activity: A: active compound; I: inactive compound", "conditions": "Table 1", "how_it_was_run": "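Sheep choroid plexus cells infected with visna virus for 1 h adsorption, then overlaid with compound in M-199 with 2% lamb serum and 0.5% agarose. Incubation at 37 °C, 5% CO2 for 3–4 weeks; plaques counted after formalin fixation and crystal violet staining, triplicate per concentration. Toxicity scored 0 (none) to 4 (total monolayer lysis).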"}, "sucrase": {"test_system": "sucrase", "assay": "Sucrase inhibition locally in the gut", "type": "in vivo, monkey", "conditions": "normal, uninfected monkeys"}, "[5]": {"conditions": "oral [14C] pro-drug, Rhesus monkey"}}}
{"smiles": "CCCCN1C[C@H](OC(=O)CCC)[C@@H](OC(=O)CCC)[C@H](OC(=O)CCC)[C@H]1COC(=O)CCC", "note": "[Example 16, 1,5-(Butylimino)-1,5-dideoxy-D-glucitol, tetrabutyrate]", "values": [{"measurement": "metabolic transformation in vivo", "setting": "[1]; Rhesus monkey", "value": "controlled, sustained levels of a metabolite"}, {"measurement": "metabolic profiles of either radiolabeled compound (pro-drug, metabolite)", "setting": "[1]; monkey, oral, plasma and urine", "value": "the same in plasma and urine"}, {"measurement": "parent pro-drug in plasma", "setting": "[1]; [5]", "value": "not detected"}, {"measurement": "radiolabeled compound in plasma after oral pro-drug", "setting": "[1]; [5]", "value": "yielded only [^14 C]SC-metabolite compound in the plasma"}, {"measurement": "Toxicity", "setting": "[2]; 0.001 mM", "value": 0}, {"measurement": "Toxicity", "setting": "[2]; 0.01 mM", "value": 0}, {"measurement": "Toxicity", "setting": "[2]; 1.0 mM", "value": 4}, {"measurement": "Toxicity", "setting": "[3]", "value": 1}, {"measurement": "metabolic transformation in vivo", "setting": "[4]", "value": "controlled, sustained levels of a metabolite"}, {"measurement": "parent pro-drug in plasma", "setting": "[4]; oral [14C] pro-drug", "value": "not detected"}, {"measurement": "radiolabeled compound in plasma after oral pro-drug", "setting": "[4]; oral [14C] pro-drug", "value": "yielded only [^14 C]SC-metabolite compound in the plasma"}, {"measurement": "parent pro-drug in portal plasma", "setting": "[4]; oral, portal plasma", "value": "no parent pro-drug detected"}, {"measurement": "diarrheagenic results", "setting": "Diarrheagenic effect", "value": "negative diarrheagenic results"}, {"measurement": "Antiviral Activity", "setting": "visna virus; 0.001 mM", "value": "A"}, {"measurement": "Antiviral Activity", "setting": "visna virus; 0.01 mM", "value": "A"}, {"measurement": "Antiviral Activity", "setting": "visna virus; 0.1 mM", "value": "A"}, {"measurement": "Antiviral Activity", "setting": "visna virus; 1.0 mM", "value": "Toxic"}, {"measurement": "inhibition of sucrase locally in the gut", "setting": "sucrase", "value": "does not significantly inhibit sucrase locally in the gut"}]}
